Laboratory results reported in the PolyMetriX glass transition set.
± gives the standard deviation of the reports.

How the values were obtained:
[1] = not given; remark: listed apart in the source

Row | Compound | glass transition temperature | glass transition temperature [1]
1 | *c1ccc2c(c1)C(=O)N(c1ccc(P(=O)(c3ccccc3)c3ccc(N4C(=O)c5ccc(C(*)(C(F)(F)F)C(F)(F)F)cc5C4=O)cc3)cc1)C2=O (repeat unit) | 345.00 °C | 
2 | *Oc1cccc2c1C(=O)N(c1ccc(Oc3ccc(Oc4cccc(N5C(=O)c6cccc(*)c6C5=O)c4)cc3)cc1)C2=O (repeat unit) | 263.00 °C | 
3 | *c1ccc2c(c1)C(=O)N(c1cc(N3C(=O)c4ccc([Si](*)(C)C)cc4C3=O)cc(C(F)(F)F)c1)C2=O (repeat unit) | 263.00 °C | 
4 | *c1ccc2c(c1)C(=O)N(c1ccc(OCC(F)(F)C(F)(F)C(F)(F)C(F)(F)C(F)(F)C(F)(F)F)c(N3C(=O)c4ccc(C(*)(C(F)(F)F)C(F)(F)F)cc4C3=O)c1)C2=O (repeat unit) | 228.00 °C | 
5 | *c1c(C)c(C)c(N2C(=O)c3cc4c(cc3C2=O)C(c2ccccc2)(C(F)(F)F)c2cc3c(cc2O4)C(=O)N(*)C3=O)c(C)c1C (repeat unit) | 394.00 °C | 
6 | *C(=O)c1ccc2c(c1)C(=O)N(c1ccc(N3C(=O)c4ccc(*)cc4C3=O)cc1)C2=O (repeat unit) |  | 325.00 ± 11 °C
7 | *CC(=O)Nc1ccc(Oc2ccc(-c3ccc(Oc4ccc(NC(=O)CN5C(=O)c6ccc(C(c7ccc8c(c7)C(=O)N(*)C8=O)(C(F)(F)F)C(F)(F)F)cc6C5=O)cc4)cc3)cc2)cc1 (repeat unit) |  | 245.00 °C
8 | *CCN(CCOC(=O)c1cc(OCCC2CCN(c3ccc(S(=O)(=O)C(F)(F)C(F)(F)C(F)(F)C(F)(F)C(F)(F)C(F)(F)C(F)(F)C(F)(F)F)cc3)CC2)cc(C(=O)O*)c1)c1ccc(S(=O)(=O)C(F)(F)C(F)(F)C(F)(F)C(F)(F)C(F)(F)C(F)(F)C(F)(F)C(F)(F)F)cc1 (repeat unit) |  | 86.00 °C
9 | *CC(*)C(=O)OCCCCCCCCn1c2ccccc2c2ccccc21 (repeat unit) |  | 12.00 °C
10 | *Oc1ccc(S(=O)(=O)c2ccc(Oc3ccc(C(c4ccc(*)c(Br)c4)(C(F)(F)F)C(F)(F)F)cc3Br)cc2)cc1 (repeat unit) |  | 197.50 °C
11 | *Sc1ccc(Sc2ccc(Sc3ccc4c(c3)Sc3ccc(*)cc3S4)cc2)cc1 (repeat unit) |  | 154.00 °C
12 | *c1ccc(Oc2ccc(C(c3ccc(Oc4ccc(-c5nnc(*)c6c(-c7ccc(F)cc7)c(-c7ccc(F)cc7)c(-c7ccc(F)cc7)c(-c7ccc(F)cc7)c56)cc4)cc3)(C(F)(F)F)C(F)(F)F)cc2)cc1 (repeat unit) |  | 288.00 °C
13 | *CCN(CCOC(=O)c1ccc(C(=O)O*)c(OCCC)c1)c1ccc(-c2nc3ccc([N+](=O)[O-])cc3o2)cc1 (repeat unit) |  | 119.00 °C
14 | *Oc1ccc(OC(=O)c2cc(OCCCCCOCC3CCCN3c3ccc([N+](=O)[O-])cc3)c(C(*)=O)cc2OCCCCCOCC2CCCN2c2ccc([N+](=O)[O-])cc2)cc1 (repeat unit) |  | 63.00 °C
15 | *CC(*)C(=O)OCCCCCCOc1ccc(C(=O)Oc2ccc(OC)cc2)cc1 (repeat unit) |  | 29.50 °C
16 | *CC(*)c1ccccc1Cl (repeat unit) [Poly(2-chlorostyrene)] |  | 118.92 ± 2.1 °C
17 | *c1ccc(-c2nc3cc(-c4ccc5nc(-c6ccccc6)c(-c6ccc(N7C(=O)C8OC9C(=O)N(*)C(=O)C9C8C7=O)cc6)nc5c4)ccc3nc2-c2ccccc2)cc1 (repeat unit) |  | 230.00 °C
18 | *CCC(C)CCOC(=O)CCCCC(=O)O* (repeat unit) |  | -78.60 °C
19 | */C=C(\C#N)C(=O)OCCCCCCCCCCOC(=O)/C(C#N)=C/c1ccc2c(c1)c1cc(*)ccc1n2CCCCCCC (repeat unit) |  | 59.00 °C
20 | *Oc1ccc(Oc2ccc(Oc3ccc(Oc4ccc(OC(=O)c5cccc(C(*)=O)c5)cc4)cc3)cc2)cc1 (repeat unit) |  | 134.00 °C
21 | *c1ccc(Oc2ccc(N3C(=O)c4ccc(Oc5ccc(Oc6ccc(Oc7ccc8c(c7)C(=O)N(*)C8=O)cc6)cc5)cc4C3=O)cc2)cc1 (repeat unit) |  | 215.00 °C
22 | *N(C)[Si](*)(C)C=C (repeat unit) |  | -20.00 °C
23 | *CCCCCCCCCCCNC(=O)CCCCCCCCC(=O)N* (repeat unit) |  | 40.00 °C
24 | *c1ccc2c(c1)C(=O)N(C1CC(C)(C)CC(C)(CN3C(=O)c4ccc(C(*)(C(F)(F)F)C(F)(F)F)cc4C3=O)C1)C2=O (repeat unit) |  | 278.00 °C
25 | *c1ccc(-c2ccc3c(c2)C(CCCCCCBr)(CCCCCCBr)c2cc(*)ccc2-3)cc1 (repeat unit) |  | 122.00 °C
26 | *C(=O)Nc1ccc(C(=O)c2ccc(NC(=O)c3ccc4c(c3)C(=O)N(c3cccc(P(=O)(c5ccccc5)c5cccc(N6C(=O)c7ccc(*)cc7C6=O)c5)c3)C4=O)cc2)cc1 (repeat unit) |  | 238.00 °C
27 | *Oc1ccc(Oc2ccc(OC(=O)c3cccc(Oc4ccc(Oc5cccc(C(*)=O)c5)cc4)c3)cc2)cc1 (repeat unit) |  | 104.00 °C

Second part, the compound after the results:

Row | glass transition temperature | glass transition temperature [1] | Compound
28 | 374.50 ± 15 °C |  | *c1ccc2c(c1)C(=O)N(c1c(F)c(F)c(-c3c(F)c(F)c(N4C(=O)c5ccc(C(*)(C(F)(F)F)C(F)(F)F)cc5C4=O)c(F)c3F)c(F)c1F)C2=O (repeat unit)
29 | 375.00 °C |  | *c1ccc(-c2ccc(N3C(=O)c4cc5c(cc4C3=O)C(C(F)(F)F)(C(F)(F)F)c3cc4c(cc3O5)C(=O)N(*)C4=O)cc2OC(F)(F)F)c(OC(F)(F)F)c1 (repeat unit)
30 | 286.00 °C |  | *c1ccc2c(c1)C(=O)N(c1ccc(-c3ccc(N4C(=O)c5ccc(C(*)(C(F)(F)F)C(F)(F)F)cc5C4=O)cc3-c3ccc(C)cc3)c(-c3ccc(C)cc3)c1)C2=O (repeat unit)
31 | 216.00 °C |  | *Oc1cccc(S(=O)(=O)c2ccc(Oc3cccc4c3C(=O)N(c3ccc(Oc5cccc(Oc6ccc(N7C(=O)c8cccc(*)c8C7=O)cc6)c5)cc3)C4=O)cc2)c1 (repeat unit)
32 | 319.50 ± 0.7 °C |  | *Sc1ccc2c(c1)C(=O)N(c1ccc(N3C(=O)c4cccc(*)c4C3=O)cc1)C2=O (repeat unit)
33 | 289.00 °C |  | *C(=O)c1ccc2c(c1)C(=O)N(c1ccccc1Oc1ccccc1N1C(=O)c3ccc(*)cc3C1=O)C2=O (repeat unit)
34 | 245.00 ± 1.5 °C |  | *c1ccc2c(c1)C(=O)N(c1cccc(Oc3cccc(N4C(=O)c5cccc(*)c5C4=O)c3)c1)C2=O (repeat unit)
35 | 329.00 °C |  | *c1ccc2c(c1)C(=O)N(c1ccc(-c3ccc(N4C(=O)c5ccc(C(*)(C(F)(F)F)C(F)(F)F)cc5C4=O)cc3Br)c(Br)c1)C2=O (repeat unit)
36 |  | 77.80 °C | *OC1CCC(OC(=O)CCCCC(*)=O)CC1 (repeat unit)
37 |  | 268.00 °C | *c1ccc(Oc2ccc(-c3cc(-c4cccc(-c5cc(*)c6ccccc6n5)c4)nc4ccccc34)cc2)cc1 (repeat unit)
38 |  | 70.00 °C | *CC(*)C(=O)OCCOc1ccc(C(=O)Oc2ccc(OC)cc2)cc1 (repeat unit)
39 |  | 130.00 °C | *c1ccc(C#Cc2cc(OCCCCCCCC)c(C#Cc3ccc(-c4nnc(*)o4)cc3)cc2OCCCCCCCC)cc1 (repeat unit)
40 |  | 12.00 °C | *CC(*)(C)C(=O)OCCCCCCCCCCOc1ccc(OC(=O)c2ccc(OCCCCCCCC)cc2)cc1 (repeat unit)
41 |  | 294.00 °C | *C(=O)c1ccc2c(c1)C(=O)N(c1cccc(C#Cc3cccc(N4C(=O)c5ccc(*)cc5C4=O)c3)c1)C2=O (repeat unit)
42 |  | 138.00 °C | *Oc1ccc(Oc2ccc(S(=O)c3ccc(Oc4ccc(Oc5cccc(*)n5)cc4)cc3)cc2)cc1 (repeat unit)
43 |  | 341.00 °C | *c1ccc(Cc2ccc(N3C(=O)C4CCC5C(=O)N(*)C(=O)C5C4C3=O)cc2)cc1 (repeat unit)
44 |  | 167.00 °C | *Oc1ccc(/C=C/C(=O)c2ccc(Oc3ccc(C(C)(c4ccccc4)c4ccc(*)cc4)cc3)cc2)cc1 (repeat unit)
45 |  | 226.00 °C | *C(=O)c1ccc2c(c1)C(=O)N(c1ccc(S(=O)(=O)c3ccc(NC(=O)c4cccc(C(=O)Nc5ccc(S(=O)(=O)c6ccc(N7C(=O)c8ccc(*)cc8C7=O)cc6)cc5)c4)cc3)cc1)C2=O (repeat unit)
46 |  | 328.00 °C | *C(=O)Nc1ccc(C2(c3ccc(N4C(=O)c5ccc(*)cc5C4=O)cc3)CC(C)CC(C)(C)C2)cc1 (repeat unit)
47 |  | 267.00 °C | *C(=O)Nc1ccc(-c2ccc(NC(=O)c3ccc4c(c3)C(=O)N(c3c(C)cc(C)c(N5C(=O)c6ccc(*)cc6C5=O)c3C)C4=O)cc2C(F)(F)F)c(C(F)(F)F)c1 (repeat unit)
48 |  | 221.00 °C | */C=C(\C#N)C(=O)Nc1cc(-c2ccc(O)c(NC(=O)/C(C#N)=C/c3ccc(/C=C/c4ccc(N(c5ccccc5)c5ccc(N(c6ccccc6)c6ccc(/C=C/c7ccc(*)s7)cc6)cc5)cc4)s3)c2)ccc1O (repeat unit)
49 |  | 340.00 ± 11 °C | *c1ccc(C(=O)c2cccc(-n3c(=O)c4cc5c(=O)n(*)c(=O)c5cc4c3=O)c2)cc1 (repeat unit)
50 |  | -90.00 °C | *O[Si](C)(C)O[Si](C)(C)O[Si](C)(C)OC(C)CCC(*)C (repeat unit)
51 |  | 330.00 °C | *C(=O)Nc1ccc(Oc2ccc(C3(c4ccc(Oc5ccc(NC(=O)c6ccc7c(c6)C(=O)N(c6ccc(Oc8ccc(C9(c%10ccc(Oc%11ccc(N%12C(=O)c%13ccc(*)cc%13C%12=O)cc%11)cc%10)NC(=O)c%10ccccc%109)cc8)cc6)C7=O)cc5)cc4)NC(=O)c4ccccc43)cc2)cc1 (repeat unit)
52 |  | 371.50 °C | *c1ccc2oc(-c3ccc(-c4nc5cc(C(*)(C(F)(F)F)C(F)(F)F)ccc5o4)cc3)nc2c1 (repeat unit)
53 |  | 120.00 °C | *C(=O)Nc1ccc(N2C(=O)CC(N3C(=O)c4ccc(*)cc4C3=O)C2=O)cc1 (repeat unit)
